Source: ChEMBL document CHEMBL1151757, “Synthesis, radiosynthesis, and biological evaluation of fluorine-18-labeled 2beta-carbo(fluoroalkoxy)-3beta-(3'-((Z)-2-haloethenyl)phenyl)nortropanes: candidate radioligands for in vivo imaging of the serotonin transporter with positron emission tomography” (J Med Chem, 2008)

Columns and labels:
[1] = tested on: Midbrain; assay: Drug uptake in anesthetized cynomolgus monkey brain midbrain after 192.5 mins postinjection; format: ADME, organism-based, Macaca fascicularis; conditions: in vivo
[2] = Drug uptake in awake rhesus monkey brain medulla after 65 mins postinjection; format: ADME, organism-based, Macaca mulatta; conditions: in vivo
[3] = tested on: Pons; assay: Drug uptake in anesthetized cynomolgus monkey brain pons after 9.5 mins postinjection; format: ADME, organism-based, Macaca fascicularis; conditions: in vivo
[4] = tested on: Thalamus; assay: Drug uptake in anesthetized cynomolgus monkey brain thalamus after 155 mins postinjection; format: ADME, organism-based, Macaca fascicularis; parameters: unit not given here; conditions: in vivo
[5] = Drug uptake in awake rhesus monkey brain caudate after 25 mins postinjection; format: ADME, organism-based, Macaca mulatta, Caudate nucleus; conditions: in vivo
[6] = tested on: Midbrain; assay: Drug uptake in anesthetized cynomolgus monkey brain midbrain after 197.5 mins postinjection; format: ADME, organism-based, Macaca fascicularis; conditions: in vivo
[7] = Ratio of drug uptake in putamen to cerebellum in awake rhesus monkey after 45 mins postinjection; format: ADME, organism-based, Macaca mulatta; conditions: in vivo, 0.75 h
[8] = Ratio of drug uptake in thalamus to cerebellum in awake rhesus monkey after 17.5 mins postinjection; format: ADME, organism-based, Macaca mulatta; conditions: in vivo
[9] = Drug uptake in anesthetized cynomolgus monkey brain cerebellum after 197.5 mins postinjection; format: ADME, organism-based, Macaca fascicularis; conditions: in vivo
[10] = Ratio of drug uptake in occipital lobe to cerebellum in anesthetized cynomolgus monkey after 4.5 mins postinjection; format: ADME, organism-based, Macaca fascicularis; conditions: in vivo, 0.075 h
[11] = tested on: Thalamus; assay: Drug uptake in anesthetized cynomolgus monkey brain thalamus after 18.5 mins postinjection; format: ADME, organism-based, Macaca fascicularis; parameters: unit not given here; conditions: in vivo
[12] = Ratio of drug uptake in pons to cerebellum in anesthetized cynomolgus monkey after 18.5 mins postinjection; format: ADME, organism-based, Macaca fascicularis; conditions: in vivo
[13] = Ratio of drug uptake in midbrain to cerebellum in awake rhesus monkey after 85 mins postinjection; format: ADME, organism-based, Macaca mulatta; conditions: in vivo
[14] = Ratio of drug uptake in medulla to cerebellum in anesthetized cynomolgus monkey after 0.5 mins postinjection; format: ADME, organism-based, Macaca fascicularis; conditions: in vivo
[15] = Ratio of drug uptake in thalamus to cerebellum in awake rhesus monkey after 105 mins postinjection; format: ADME, organism-based, Macaca mulatta; conditions: in vivo, 1.75 h
[16] = tested on: Midbrain; assay: Drug uptake in anesthetized cynomolgus monkey brain midbrain after 6.5 mins postinjection; format: ADME, organism-based, Macaca fascicularis; parameters: unit not given here; conditions: in vivo
[17] = tested on: Midbrain; assay: Drug uptake in anesthetized cynomolgus monkey brain midbrain after 75 mins postinjection; format: ADME, organism-based, Macaca fascicularis; parameters: unit not given here; conditions: in vivo, 1.25 h
[18] = Ratio of drug uptake in midbrain to cerebellum in anesthetized cynomolgus monkey after 145 mins postinjection; format: ADME, organism-based, Macaca fascicularis; conditions: in vivo
[19] = tested on: Medulla; assay: Drug uptake in anesthetized cynomolgus monkey brain medulla after 155 mins postinjection; format: ADME, organism-based, Macaca fascicularis; conditions: in vivo
[20] = tested on: Putamen; assay: Drug uptake in anesthetized cynomolgus monkey brain putamen after 4.5 mins postinjection; format: ADME, organism-based, Macaca fascicularis; parameters: unit not given here; conditions: in vivo, 0.075 h
[21] = Drug uptake in awake rhesus monkey brain pons after 25 mins postinjection; format: ADME, organism-based, Macaca mulatta; conditions: in vivo
[22] = Drug uptake in anesthetized cynomolgus monkey brain frontal lobe after 197.5 mins postinjection; format: ADME, organism-based, Macaca fascicularis; conditions: in vivo
[23] = tested on: Putamen; assay: Drug uptake in anesthetized cynomolgus monkey brain putamen after 145 mins postinjection; format: ADME, organism-based, Macaca fascicularis; conditions: in vivo
[24] = Drug uptake in anesthetized cynomolgus monkey brain frontal lobe after 27.5 mins postinjection; format: ADME, organism-based, Macaca fascicularis; conditions: in vivo
[25] = Drug uptake in awake rhesus monkey brain frontal lobe after 105 mins postinjection; format: ADME, organism-based, Macaca mulatta; conditions: in vivo, 1.75 h
[26] = Drug uptake in awake rhesus monkey brain caudate after 13.5 mins postinjection; format: ADME, organism-based, Macaca mulatta, Caudate nucleus; conditions: in vivo, 0.225 h
[27] = tested on: Medulla; assay: Drug uptake in anesthetized cynomolgus monkey brain medulla after 135 mins postinjection; format: ADME, organism-based, Macaca fascicularis; conditions: in vivo, 2.25 h
[28] = tested on: Thalamus; assay: Drug uptake in anesthetized cynomolgus monkey brain thalamus after 197.5 mins postinjection; format: ADME, organism-based, Macaca fascicularis; conditions: in vivo
[29] = tested on: Putamen; assay: Drug uptake in anesthetized cynomolgus monkey brain putamen after 0.5 mins postinjection; format: ADME, organism-based, Macaca fascicularis; conditions: in vivo
[30] = tested on: Putamen; assay: Drug uptake in anesthetized cynomolgus monkey brain putamen after 18.5 mins postinjection; format: ADME, organism-based, Macaca fascicularis; parameters: unit not given here; conditions: in vivo
[31] = Ratio of drug uptake in midbrain to cerebellum in anesthetized cynomolgus monkey after 18.5 mins postinjection; format: ADME, organism-based, Macaca fascicularis; conditions: in vivo
[32] = Drug uptake in awake rhesus monkey brain frontal lobe after 75 mins postinjection; format: ADME, organism-based, Macaca mulatta; conditions: in vivo, 1.25 h
[33] = tested on: Thalamus; assay: Drug uptake in anesthetized cynomolgus monkey brain thalamus after 175 mins postinjection; format: ADME, organism-based, Macaca fascicularis; parameters: unit not given here; conditions: in vivo
[34] = tested on: Medulla; assay: Drug uptake in anesthetized cynomolgus monkey brain medulla after 215 mins postinjection; format: ADME, organism-based, Macaca fascicularis; conditions: in vivo
[35] = Ratio of drug uptake in midbrain to cerebellum in anesthetized cynomolgus monkey after 9.5 mins postinjection; format: ADME, organism-based, Macaca fascicularis; conditions: in vivo
[36] = Ratio of drug uptake in medulla to cerebellum in anesthetized cynomolgus monkey after 12.5 mins postinjection; format: ADME, organism-based, Macaca fascicularis; conditions: in vivo
[37] = tested on: Medulla; assay: Drug uptake in anesthetized cynomolgus monkey brain medulla after 1.5 mins postinjection; format: ADME, organism-based, Macaca fascicularis; conditions: in vivo, 0.025 h
[38] = Drug uptake in anesthetized cynomolgus monkey brain occipital lobe after 18.5 mins postinjection; format: ADME, organism-based, Macaca fascicularis; conditions: in vivo
[39] = Drug uptake in awake rhesus monkey brain thalamus after 10.5 mins postinjection; format: ADME, organism-based, Macaca mulatta; conditions: in vivo, 0.175 h
[40] = tested on: Caudate; assay: Drug uptake in anesthetized cynomolgus monkey brain caudate after 175 mins postinjection; format: ADME, organism-based, Macaca fascicularis, Caudate nucleus; conditions: in vivo
[41] = tested on: Medulla; assay: Drug uptake in anesthetized cynomolgus monkey brain medulla after 235 mins postinjection; format: ADME, organism-based, Macaca fascicularis; conditions: in vivo
[42] = Ratio of drug uptake in caudate to cerebellum in anesthetized cynomolgus monkey after 95 mins postinjection; format: ADME, organism-based, Macaca fascicularis; conditions: in vivo
[43] = tested on: Medulla; assay: Drug uptake in anesthetized cynomolgus monkey brain medulla after 4.5 mins postinjection; format: ADME, organism-based, Macaca fascicularis; conditions: in vivo, 0.075 h
[44] = tested on: Midbrain; assay: Drug uptake in anesthetized cynomolgus monkey brain midbrain after 155 mins postinjection; format: ADME, organism-based, Macaca fascicularis; conditions: in vivo
[45] = tested on: Pons; assay: Drug uptake in anesthetized cynomolgus monkey brain pons after 145 mins postinjection; format: ADME, organism-based, Macaca fascicularis; conditions: in vivo
[46] = Drug uptake in anesthetized cynomolgus monkey brain occipital lobe after 65 mins postinjection; format: ADME, organism-based, Macaca fascicularis; conditions: in vivo
[47] = tested on: Putamen; assay: Drug uptake in anesthetized cynomolgus monkey brain putamen after 182.5 mins postinjection; format: ADME, organism-based, Macaca fascicularis; conditions: in vivo
[48] = tested on: Midbrain; assay: Drug uptake in anesthetized cynomolgus monkey brain midbrain after 1.5 mins postinjection; format: ADME, organism-based, Macaca fascicularis; parameters: unit not given here; conditions: in vivo, 0.025 h
[49] = Drug uptake in anesthetized cynomolgus monkey brain occipital lobe after 105 mins postinjection; format: ADME, organism-based, Macaca fascicularis; conditions: in vivo, 1.75 h
[50] = Ratio of drug uptake in midbrain to cerebellum in anesthetized cynomolgus monkey after 85 mins postinjection; format: ADME, organism-based, Macaca fascicularis; conditions: in vivo
[51] = Drug uptake in anesthetized cynomolgus monkey brain frontal lobe after 22.5 mins postinjection; format: ADME, organism-based, Macaca fascicularis; conditions: in vivo, 0.375 h
[52] = Ratio of drug uptake in medulla to cerebellum in anesthetized cynomolgus monkey after 95 mins postinjection; format: ADME, organism-based, Macaca fascicularis; conditions: in vivo
[53] = Ratio of drug uptake in putamen to cerebellum in anesthetized cynomolgus monkey after 3.5 mins postinjection; format: ADME, organism-based, Macaca fascicularis; conditions: in vivo
[54] = Drug uptake in anesthetized cynomolgus monkey brain cerebellum after 45 mins postinjection; format: ADME, organism-based, Macaca fascicularis; conditions: in vivo, 0.75 h
[55] = Ratio of drug uptake in medulla to cerebellum in anesthetized cynomolgus monkey after 135 mins postinjection; format: ADME, organism-based, Macaca fascicularis; conditions: in vivo, 2.25 h
[56] = Drug uptake in anesthetized cynomolgus monkey brain frontal lobe after 55 mins postinjection; format: ADME, organism-based, Macaca fascicularis; conditions: in vivo
[57] = Drug uptake in anesthetized cynomolgus monkey brain frontal lobe after 145 mins postinjection; format: ADME, organism-based, Macaca fascicularis; conditions: in vivo
[58] = Drug uptake in anesthetized cynomolgus monkey brain frontal lobe after 4.5 mins postinjection; format: ADME, organism-based, Macaca fascicularis; conditions: in vivo, 0.075 h

## O=C(OCC[18F])C1C2CCC(CC1c1cccc(/C=C\I)c1)N2 (stereo not given)
[1]
  Drug uptake: 3.24
[2]
  Drug uptake: 0.12
[3]
  Drug uptake: 2.4
[4]
  Drug uptake: 3.03
[5]
  Drug uptake: 0.13
[6]
  Drug uptake: 3.2
[7]
  Ratio: 1.5
[8]
  Ratio: 1.3
[9]
  Drug uptake: 1.41
[10]
  Ratio: 0.6
[11]
  Drug uptake: 3.7
[12]
  Ratio: 0.7
[13]
  Ratio: 1.6
[14]
  Ratio: 1.6
[15]
  Ratio: 1.7
[16]
  Drug uptake: 2.99
[17]
  Drug uptake: 4.76
[18]
  Ratio: 2.1
[19]
  Drug uptake: 2.98
[20]
  Drug uptake: 1.53
[21]
  Drug uptake: 0.12
[22]
  Drug uptake: 1.58
[23]
  Drug uptake: 3.27
[24]
  Drug uptake: 2.82
[25]
  Drug uptake: 0.1
[26]
  Drug uptake: 0.09
[27]
  Drug uptake: 3.24
[28]
  Drug uptake: 2.46
[29]
  Drug uptake: 0
[30]
  Drug uptake: 3.78
[31]
  Ratio: 1.1
[32]
  Drug uptake: 0.11
[33]
  Drug uptake: 2.76
[34]
  Drug uptake: 2.43
[35]
  Ratio: 1
[36]
  Ratio: 0.9
[37]
  Drug uptake: 0.13
[38]
  Drug uptake: 2.84
[39]
  Drug uptake: 0.12
[40]
  Drug uptake: 2.43
[41]
  Drug uptake: 2.32
[42]
  Ratio: 1.3
[43]
  Drug uptake: 1.8
[44]
  Drug uptake: 3.66
[45]
  Drug uptake: 2.57
[46]
  Drug uptake: 2.86
[47]
  Drug uptake: 2.78
[48]
  Drug uptake: 0.11

## O=C(OCCC[18F])C1C2CCC(CC1c1cccc(/C=C\Br)c1)N2 (stereo not given)
[49]
  Drug uptake: 3.91
[1]
  Drug uptake: 4.52
[50]
  Ratio: 1.5
[3]
  Drug uptake: 4.14
[4]
  Drug uptake: 4.27
[6]
  Drug uptake: 4.54
[9]
  Drug uptake: 2.16
[10]
  Ratio: 0.7
[11]
  Drug uptake: 4.77
[12]
  Ratio: 0.7
[51]
  Drug uptake: 3.74
[14]
  Ratio: 2.4
[16]
  Drug uptake: 4.35
[52]
  Ratio: 1.5
[17]
  Drug uptake: 6.07
[18]
  Ratio: 1.8
[19]
  Drug uptake: 4.48
[20]
  Drug uptake: 3.11
[22]
  Drug uptake: 2.23
[53]
  Ratio: 0.8
[23]
  Drug uptake: 4.58
[24]
  Drug uptake: 3.8
[27]
  Drug uptake: 4.99
[54]
  Drug uptake: 5.11
[28]
  Drug uptake: 3.74
[29]
  Drug uptake: 0.01
[30]
  Drug uptake: 5.83
[31]
  Ratio: 0.9
[33]
  Drug uptake: 4
[34]
  Drug uptake: 3.67
[35]
  Ratio: 0.9
[36]
  Ratio: 1
[37]
  Drug uptake: 0.42
[38]
  Drug uptake: 4.35
[55]
  Ratio: 1.7
[40]
  Drug uptake: 4.04
[41]
  Drug uptake: 3.34
[42]
  Ratio: 1.3
[56]
  Drug uptake: 3.67
[43]
  Drug uptake: 3.95
[44]
  Drug uptake: 5.23
[57]
  Drug uptake: 2.85
[45]
  Drug uptake: 4.35
[58]
  Drug uptake: 1.85
[46]
  Drug uptake: 4.52
[47]
  Drug uptake: 4.09
[48]
  Drug uptake: 0.48
